The values below are quoted from earlier work in US5272138A, “Naturally occurring gangliosides containing de-N-acetyl-sialic acid and their applications as modifiers of cell physiology” (The Biomembrane Institute, priority 1990, dated 1993).

For this data set the following is noted: compared with lysolecithin, Taketomi and Kawamura 1970.

In the case of `CCCCCCCCCCCCCC=CC(O)C(N)COC1OC(CO)C(OC2OC(CO)C(O)C(OC3(C(=O)O)CC(O)C(N)C(C(O)C(O)CO)O3)C2O)C(O)C1O` (stereo not shown), the hemolytic activity entry is reported as “twice that of lysolecithin”.
